Results from ChEMBL document CHEMBL5329205, “Development of novel quinoline-NO donor hybrids inducing human breast cancer cells apoptosis via inhibition of topoisomerase I” (Bioorg Med Chem, 2023).
pIC50: −log10 of the molar value. Activity calls are given as the source filed them. The rule behind the calls is not given here.

Assays:
[1] = biological target: ATP-dependent translocase ABCB1 (Homo sapiens, UniProt P08183); assay: Inhibition of P-glycoprotein mediated Rhodamine-123 transport in human MCF7ADR cells assessed as increase in fluorescence index of rhodamine-123 at 1.5 to 3 uM incubated for 24 hrs by flow cytometry analysis; assay type: cell-based; settings: dose 1.5-3 µM
MCF7 [2] = assay: Induction of apoptosis in human MCF7 cells assessed as upregulation of Bax expression incubated for 24 hrs by Western blot analysis; assay type: functional, cell-based; settings: dose 1-4 µM
[3] = Toxicity in BALB/c mouse xenografted with human MCF7 cells assessed as liver damage at 10 mg/kg, ip administered once every two days for 3 weeks by H and E staining based microscopic analysis; assay type: organism-based; settings: in vivo, 504 h
MCF7 [4] = assay: Induction of apoptosis in human MCF7 cells assessed as viable cells at 1.5 uM incubated for 48 hrs by Annexin-V/PI staining based flow cytometry analysis (reference value: 99.7%); assay type: functional; settings: read-out: Activity
MCF7 [5] = assay: Induction of apoptosis in human MCF7 cells assessed as necrotic cells at 3 uM incubated for 48 hrs by Annexin-V/PI staining based flow cytometry analysis (reference value: 0.0%); assay type: functional
MCF7 [6] = assay: Antiproliferative activity against human MCF7 cells assessed as inhibition of cell growth incubated for 48 hrs by MTT assay; assay type: functional, cell-based; settings: MCF7, 48 h
MCF7 [7] = assay: Induction of apoptosis in human MCF7 cells assessed as downregulation of Bcl-2 expression incubated for 24 hrs by Western blot analysis; assay type: functional, cell-based; settings: dose 1-4 µM
MCF7 [8] = assay: Induction of apoptosis in human MCF7 cells assessed as total apoptotic cells at 0.75 to 3 uM incubated for 48 hrs by Annexin-V/PI staining based flow cytometry analysis (reference value: 0.3 %); assay type: functional; settings: dose 0.75-3 µM
[9] = Cytotoxicity against human MCF-10A cells assessed as cell growth inhibition measured after 48 hrs by MTT assay; assay type: toxicity, cell-based
[10] = Toxicity in BALB/c mouse xenografted with human MCF7 cells assessed as kidney damage at 10 mg/kg, ip administered once every two days for 3 weeks by H and E staining based microscopic analysis; assay type: organism-based; settings: in vivo, 504 h
MCF7 [11] = assay: Induction of cell cycle arrest in human MCF7 cells assessed as S phase cells at 1.5 uM incubated for 24 hrs by PI/RNaseA staining based flow cytometry analysis (reference value: 22.2 %); assay type: functional
MCF7 [12] = assay: Induction of apoptosis in human MCF7 cells assessed as upregulation of Bad expression incubated for 24 hrs by Western blot analysis; assay type: functional, cell-based; settings: dose 1-4 µM
[13] = Toxicity in BALB/c mouse xenografted with human MCF7 cells assessed as heart damage at 10 mg/kg, ip administered once every two days for 3 weeks by H and E staining based microscopic analysis; assay type: organism-based; settings: in vivo, 504 h
[14] = Toxicity in BALB/c mouse xenografted with human MCF7 cells assessed as lung damage at 10 mg/kg, ip administered once every two days for 3 weeks by H and E staining based microscopic analysis; assay type: organism-based; settings: in vivo, 504 h
MCF7 [15] = assay: Induction of apoptosis in human MCF7 cells assessed as boundary consolidation upto 3 uM incubated for 48 hrs by Hoechst-33342 staining based fluorescent microscopic analysis; assay type: functional, cell-based
MCF7 [16] = assay: Induction of apoptosis in human MCF7 cells assessed as necrotic cells at 0.75 uM incubated for 48 hrs by Annexin-V/PI staining based flow cytometry analysis (reference value: 0.0%); assay type: functional
MCF7 [17] = assay: Antitumor activity against human MCF7 cells xenografted in BALB/c nude mouse assessed as reduction in tumor weight at 10 mg/kg, ip administered once every two days for 3 weeks relative to control; assay type: functional; set-up: scale not given: the % may be the effect or the level left
MCF7 [18] = assay: Induction of apoptosis in human MCF7 cells assessed as necrotic cells at 1.5 uM incubated for 48 hrs by Annexin-V/PI staining based flow cytometry analysis (reference value: 0.0%); assay type: functional
MCF7 [19] = assay: Induction of apoptosis in human MCF7 cells assessed as viable cells at 3 uM incubated for 48 hrs by Annexin-V/PI staining based flow cytometry analysis (reference value: 99.7%); assay type: functional; settings: read-out: Activity
MCF7 [20] = assay: Induction of apoptosis in human MCF7 cells assessed as upregulation of cleaved caspase-3 expression incubated for 24 hrs by Western blot analysis; assay type: functional, cell-based; settings: dose 1-4 µM
MCF7 [21] = assay: Induction of cell cycle arrest in human MCF7 cells assessed as G1 phase cells at 3 uM incubated for 24 hrs by PI/RNaseA staining based flow cytometry analysis (reference value: 66.08 %); assay type: functional
MCF7 [22] = assay: Antitumor activity against human MCF7 cells xenografted in BALB/c nude mouse assessed as reduction in tumor volume at 5 mg/kg, ip administered once every two days for 3 weeks; assay type: functional, organism-based
MCF7 [23] = assay: Induction of apoptosis in human MCF7 cells assessed as late apoptotic cells at 1.5 uM incubated for 48 hrs by Annexin-V/PI staining based flow cytometry analysis (reference value: 0.0%); assay type: functional
MCF7 [24] = assay: Induction of apoptosis in human MCF7 cells assessed as early apoptotic cells at 3 uM incubated for 48 hrs by Annexin-V/PI staining based flow cytometry analysis (reference value: 0.3%); assay type: functional

ATP-dependent translocase ABCB1, sequence (P08183 whole entry): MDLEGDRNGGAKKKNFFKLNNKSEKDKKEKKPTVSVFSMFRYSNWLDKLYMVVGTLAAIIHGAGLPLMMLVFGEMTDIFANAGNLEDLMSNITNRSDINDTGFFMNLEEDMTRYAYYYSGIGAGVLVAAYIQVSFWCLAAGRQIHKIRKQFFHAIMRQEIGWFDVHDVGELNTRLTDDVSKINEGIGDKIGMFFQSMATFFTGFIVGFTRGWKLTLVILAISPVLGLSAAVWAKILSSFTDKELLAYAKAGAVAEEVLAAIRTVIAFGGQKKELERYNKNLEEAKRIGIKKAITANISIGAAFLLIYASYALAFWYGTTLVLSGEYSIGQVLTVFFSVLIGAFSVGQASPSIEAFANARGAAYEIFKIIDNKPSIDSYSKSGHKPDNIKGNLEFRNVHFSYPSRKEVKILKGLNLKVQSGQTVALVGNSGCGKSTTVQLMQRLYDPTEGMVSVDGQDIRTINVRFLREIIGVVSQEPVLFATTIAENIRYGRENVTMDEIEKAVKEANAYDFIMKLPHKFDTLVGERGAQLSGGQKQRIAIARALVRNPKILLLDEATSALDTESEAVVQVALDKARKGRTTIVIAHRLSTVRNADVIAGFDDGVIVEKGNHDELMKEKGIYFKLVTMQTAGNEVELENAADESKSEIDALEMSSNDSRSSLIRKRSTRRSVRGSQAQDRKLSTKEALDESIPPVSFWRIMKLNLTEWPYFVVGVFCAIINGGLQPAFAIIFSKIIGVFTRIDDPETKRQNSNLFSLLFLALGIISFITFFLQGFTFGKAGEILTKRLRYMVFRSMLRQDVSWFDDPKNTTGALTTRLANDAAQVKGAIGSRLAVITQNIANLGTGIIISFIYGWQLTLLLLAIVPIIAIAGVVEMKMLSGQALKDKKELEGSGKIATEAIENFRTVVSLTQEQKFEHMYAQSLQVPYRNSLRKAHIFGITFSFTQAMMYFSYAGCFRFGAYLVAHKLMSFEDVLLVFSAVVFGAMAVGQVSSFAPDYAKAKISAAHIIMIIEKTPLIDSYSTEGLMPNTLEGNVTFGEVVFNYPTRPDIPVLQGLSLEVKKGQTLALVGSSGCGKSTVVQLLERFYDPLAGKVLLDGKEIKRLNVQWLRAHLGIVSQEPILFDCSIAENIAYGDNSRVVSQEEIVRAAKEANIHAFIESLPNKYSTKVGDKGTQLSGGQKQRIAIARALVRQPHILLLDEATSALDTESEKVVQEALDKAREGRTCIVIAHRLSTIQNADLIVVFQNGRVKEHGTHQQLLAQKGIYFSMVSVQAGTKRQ

COc1cc(-c2cc(C(=O)OCCCCCOc3no[n+]([O-])c3S(=O)(=O)c3ccccc3)c3ccccc3n2)cc(OC)c1OC
inhibition (INH) [1]: Active
Activity (MCF7 [2]): Dose-Dependent Effect
Activity [3]: Non-Toxic
viability at 1.5 µM (MCF7 [4]): 65.4%
Activity (MCF7 [5]): 1.2%
pIC50 (MCF7 [6]): 5.84
Activity (MCF7 [7]): Dose-Dependent Effect
Activity (MCF7 [8]): 64.3%
IC50 at 48 h [9]: 26.9 µM
Activity [10]: Non-Toxic
Activity (MCF7 [11]): 20.71%
Activity (MCF7 [12]): Dose-Dependent Effect
Activity [13]: Non-Toxic
Activity [14]: Non-Toxic
Activity (MCF7 [15]): Active
Activity (MCF7 [16]): 3%
Activity (MCF7 [17]): 66.79%
Activity (MCF7 [18]): 3.3%
viability at 3 µM (MCF7 [19]): 34.4%
Activity (MCF7 [20]): Dose-Dependent Effect
Activity (MCF7 [21]): 58.98%
Activity (MCF7 [22]): Active
Activity (MCF7 [23]): 18.1%
Activity (MCF7 [24]): 14.3%
